Measurements from patent US20240076347A1, “METHODS FOR PREVENTING FUNGAL INFECTIONS” (Cidara Therapeutics, Inc., priority 2016, published 2024).
Several values for one entry are separate records, joined by “and”; a condition that tells them apart may be missing. Equal entries are not always repeated. Numbered stars: 1 amine (or outer) side, 2 acyl side, 3 side chain; on linkers, the order of the positions; unused ones are H or OH. Bridge positions count the residues as written; N and C are the ends. Square brackets hold non-standard residues; d marks the D form. Peptide text beside a SMILES is read from it. * marks the point of attachment. ξ: configuration not given here. Orn(4R-OH,5R-OCH2CH2NMe3+) = C[N+](C)(C)CCO[C@@H](N[*:3])[C@H](O)C[C@H](N[*:1])C(=O)[*:2]; pTerphenylCO(4''-OnC5H11) = CCCCCOc1ccc(-c2ccc(-c3ccc(C(=O)*)cc3)cc2)cc1; hTyr(3S-OH,4S-OH) = N[C@H](C(=O)O)[C@H](O)[C@@H](O)c1ccc(O)cc1; X1 = C[C@H]1CN([*:1])C(C(=O)[*:2])C1O; Hyp = O=C(O)[C@@H]1C[C@@H](O)CN1; ξT = CC(O)C(N)C(=O)O

Tests used:
[1] = Pharmacokinetic profile in mice after subcutaneous dose; assay type: in vivo; details: mouse, plasma, 10 mg/kg SC
C. albicans = test: Neutropenic murine disseminated candidiasis model, PK/PD target determination; assay type: in vivo, Candida albicans
Method: Infection model. A neutropenic, murine, disseminated candidiasis model was used for the treatment studies. The mice were rendered neutropenic (polymorphonuclear cell count, <100/mm3) by injecting 150 mg/kg of cyclophosphamide (Mead Johnson Pharmaceuticals, Evansville, IN) subcutaneously 4 days before infection, 100 mg/kg of cyclophosphamide 1 day before infection, and additional cyclophosphamide doses (100 mg/kg) on Day 2 and Day 4 after infection to ensure neutropenia throughout the 168 h (7 d) study period. Three mice were included in each treatment and control group.
The organisms were subcultured on SDA plates 24 h prior to infection. The inoculum was prepared by placing 3 to 5 colonies into 5 ml of sterile pyrogen-free 0.15 M NaCl warmed to 35° C. The final inoculum was adjusted to a 0.6 transmittance at 530 nm. The fungal count of the inoculum determined by viable counts on SDA was 6.1±0.2 log10 CFU/ml.
Disseminated infection with the Candida strains was achieved by injection of 0.1 ml of the inoculum via the lateral tail vein 2 h prior to the start of antifungal therapy. At the end of the study period, the animals were sacrificed by CO2 asphyxiation. The kidneys of each mouse were aseptically removed and placed in 0.15 M NaCl at 4° C. The kidneys were homogenized and serially diluted 1:10, and the aliquots were plated onto SDA for viable fungal colony counts after incubation for 24 h at 35° C. The lower limit of detection was 100 CFU/ml. The results are expressed as the mean CFU/kidney for three mice.
Treatment efficacy and pharmacodynamic target determination of CD101. Neutropenic mice were infected with one of 10 Candida strains as described above. […] Five dose levels that varied from 0.25 to 64 mg/kg were administered once in a 0.2-ml volume by IP route for the 168 h study period. Due to enhanced effect against single isolate, additional studies at 0.0156 and 0.0625 mg/kg was examined for C. glabrata 5592. Groups of three mice were used for each dosing regimen and control group. At the end of the treatment period (168 h), the mice were euthanized, and their kidneys were immediately processed for CFU determination as described above.
Data analysis. A sigmoid dose-effect (Hill) model was used to measure the in vivo potency of CD101. The efficacy endpoints included the dose level required to produce a 24 h net static effect (no change in organism burden compared to that at the start of therapy) and the dose required to achieve a 1-log10 reduction in colony counts (relative to the burden at the start of therapy), when achieved. The maximum response (Emax) was measured as the difference in the number of CFU/kidney relative to that of the untreated control animals. The doses associated with the stasis and 1-log10 endpoint for each strain was calculated using the equation: log10 D=[log10 (E/(Emax−E))/N]+log10 ED50, where D is the drug dose, E is the control growth in untreated animals, Emax is the maximal effect, Nis the slope of the dose-response relationship, and ED50 is the dose needed to achieve 50% of the maximal effect. The associated AUC/MIC targets were then calculated for each strain. […] The calculations were performed using both total and free drug concentrations. The coefficient of determination (R^2) was used to estimate the variance that might be due to regression with the PK/PD index. Kruskal-Wallis one-way analysis of variance (ANOVA) was used to determine if the differences in PK/PD targets were significant between the species.

[2] = test system: A. fumigatus (ATCC 13073); test: Disseminated infection of neutropenic ICR mice, prophylaxis, survival; assay type: in vivo, Aspergillus fumigatus
Method: Inoculum Preparation. A. fumigatus (ATCC 13073) growth was taken from 96 hr potato dextrose agar (PDA) and re-suspended in 0.1% Tween 20. The culture was resuspended in 1 mL cold PBS (>1.0×10^8 CFU/mL, OD620 2.3-2.8). The culture was then diluted in PBS to final cellular densities of 2.0×10^5 CFU/mL. The actual colony counts were determined by plating dilutions on PDA plates to confirm inoculation concentration. The actual inoculum count was 1.85×10^5 CFU/mL.
A. fumigatus (ATCC 13073) disseminated infection (IV). Groups of 6 female ICR mice weighing 22±2 g were used. Animals were immunosuppressed by three intraperitoneal (IP) injections of cyclophosphamide (the first at 6 mg/mouse 3 days before inoculation, the second and third at 2 mg/mouse on Day 1 then Day 4 after inoculation). On Day 0, animals were inoculated (0.1 mL/mouse) by intravenous (IV) injection into the tail vein with A. fumigatus (ATCC 13073), 1.85×10^4 CFU per mouse. CD101 at 5, 10 and 20 mg/kg as prophylaxis was administered subcutaneously (SC) once starting 5, 3 or 1 day before inoculation. […]
A 50 percent or more (≥50%) increase in the survival rate compared to the vehicle control group indicates significant anti-infective activity. The health observations including body weight, hunched posture, ruffled fur, immobility and hypothermia were recorded daily for 14 days. Animals found moribund were to be humanely sacrificed with CO2 asphyxiation in the study.

[3] = Median of 4 C. albicans strains
[4] = 5, 10 and 20 mg/kg SC on Day −5, −3 and −1

CCCCCOc1ccc(-c2ccc(-c3ccc(C(=O)N[C@H]4C[C@@H](O)[C@@H](OCC[N+](C)(C)C)NC(=O)C5C(O)[C@@H](C)CN5C(=O)[C@H]([C@@H](C)O)NC(=O)[C@H]([C@H](O)[C@@H](O)c5ccc(O)cc5)NC(=O)[C@@H]5C[C@@H](O)CN5C(=O)C(C(C)O)NC4=O)cc3)cc2)cc1 (stereo partly drawn) [CD101] ({pTerphenylCO(4''-OnC5H11)}-[Orn(4R-OH,5R-OCH2CH2NMe3+)][ξT][Hyp][hTyr(3S-OH,4S-OH)]T[X1]; lactam 1-C)
half-life [1]: ~25 h | bioavailability ([1]; read-out: absolute bioavailability): ~50% | 1 log kill 24 h Ave Free drug AUC/MIC (C. albicans; 98-17): 3.92 | 1 log kill free drug AUC0-168 h/MIC (C. albicans; 98-17): 27.47 | 1 log kill total drug AUC0-168 h/MIC (C. albicans; 98-17): 3433.40 | Stasis 24 h Ave free drug AUC/MIC (C. albicans; 98-17): 2.19 | Stasis free drug AUC0-168 h/MIC (C. albicans; 98-17): 15.35 | Stasis total drug AUC0-168 h/MIC (C. albicans; 98-17): 1918.43 | 1 log kill dose (C. albicans; 98-17, single IP dose, 168 h): 2.73 mg/kg | Static dose (C. albicans; 98-17, single IP dose, 168 h): 1.34 mg/kg | 1 log kill 24 h Ave Free drug AUC/MIC (C. albicans; 98-210): 6.72 | 1 log kill free drug AUC0-168 h/MIC (C. albicans; 98-210): 47.01 | 1 log kill total drug AUC0-168 h/MIC (C. albicans; 98-210): 5875.95 | Stasis 24 h Ave free drug AUC/MIC (C. albicans; 98-210): 3.70 | Stasis free drug AUC0-168 h/MIC (C. albicans; 98-210): 25.93 | Stasis total drug AUC0-168 h/MIC (C. albicans; 98-210): 3241.65 | 1 log kill dose (C. albicans; 98-210, single IP dose, 168 h): 2.28 mg/kg | Static dose (C. albicans; 98-210, single IP dose, 168 h): 1.06 mg/kg | 1 log kill 24 h Ave Free drug AUC/MIC (C. albicans; 580): 3.05 | 1 log kill free drug AUC0-168 h/MIC (C. albicans; 580): 21.34 | 1 log kill total drug AUC0-168 h/MIC (C. albicans; 580): 2667.21 | Stasis 24 h Ave free drug AUC/MIC (C. albicans; 580): 2.02 | Stasis free drug AUC0-168 h/MIC (C. albicans; 580): 14.15 | Stasis total drug AUC0-168 h/MIC (C. albicans; 580): 1769.30 | 1 log kill dose (C. albicans; 580, single IP dose, 168 h): 2.03 mg/kg | Static dose (C. albicans; 580, single IP dose, 168 h): 1.20 mg/kg | 1 log kill 24 h Ave Free drug AUC/MIC (C. albicans; K-1): 6.86 | 1 log kill free drug AUC0-168 h/MIC (C. albicans; K-1): 48.05 | 1 log kill total drug AUC0-168 h/MIC (C. albicans; K-1): 6005.95 | Stasis 24 h Ave free drug AUC/MIC (C. albicans; K-1): 3.65 | Stasis free drug AUC0-168 h/MIC (C. albicans; K-1): 25.58 | Stasis total drug AUC0-168 h/MIC (C. albicans; K-1): 3197.16 | 1 log kill dose (C. albicans; K-1, single IP dose, 168 h): 5.26 mg/kg | Static dose (C. albicans; K-1, single IP dose, 168 h): 2.52 mg/kg | 1 log kill 24 h Ave Free drug AUC/MIC (C. albicans; Mean of 4 C. albicans strains): 5.14 | 1 log kill dose (C. albicans; Mean of 4 C. albicans strains): 3.08 mg/kg | 1 log kill free drug AUC0-168 h/MIC (C. albicans; Mean of 4 C. albicans strains): 35.97 | 1 log kill total drug AUC0-168 h/MIC (C. albicans; Mean of 4 C. albicans strains): 4495.63 | Stasis 24 h Ave free drug AUC/MIC (C. albicans; Mean of 4 C. albicans strains): 2.89 | Stasis free drug AUC0-168 h/MIC (C. albicans; Mean of 4 C. albicans strains): 20.25 | Stasis total drug AUC0-168 h/MIC (C. albicans; Mean of 4 C. albicans strains): 2531.64 | Static dose (C. albicans; Mean of 4 C. albicans strains): 1.53 mg/kg | 1 log kill 24 h Ave Free drug AUC/MIC (C. albicans; [3]): 5.32 | 1 log kill dose (C. albicans; [3]): 2.51 mg/kg | 1 log kill free drug AUC0-168 h/MIC (C. albicans; [3]): 37.24 | 1 log kill total drug AUC0-168 h/MIC (C. albicans; [3]): 4654.68 | Stasis 24 h Ave free drug AUC/MIC (C. albicans; [3]): 2.92 | Stasis free drug AUC0-168 h/MIC (C. albicans; [3]): 20.5 and 20.46 | Stasis total drug AUC0-168 h/MIC (C. albicans; [3]): 2557.79 | Static dose (C. albicans; [3]): 1.27 mg/kg | kill at high doses (C. albicans; a number of strains, kidney burden, 168 h): > 2 log10 | 14-day survival ([2]; 5 mg/kg SC 1 hr after infection): significant increase in the 14-day survival | increase in the 14-day survival compared to the vehicle group [2, 4]: ≥ 50% | symptoms of infection (body weight, hunched posture, ruffled fur, immobility, hypothermia) [2, 4]: improved
